# Data: patent US7199143B2, “Chemical compounds” (AstraZeneca AB, priority 2002, dated 2007)
# pKi: −log10 of the molar value.
# Experiments:
# Streptococcus pneumoniae = experiment: MIC, agar with 5% defibrinated horse blood; assay type: cell-based; settings: agar + 5% horse blood, 5% carbon dioxide, 48 hours
# Procedure: (§1) The following results were obtained on a standard in-vitro test system. The activity is described in terms of the minimum inhibitory concentration (MIC) determined by the agar-dilution technique with an inoculum size of 10^4 CFU/spot. Typically, compounds are active in the range 0.01 to 256 μg/ml.
# (§2) Streptococci and enterococci were tested on agar supplemented with 5% defibrinated horse blood, an inoculum of 10^4 CFU/spot and an incubation temperature of 37° C. in an atmosphere of 5% carbon dioxide for 48 hours—blood is required for the growth of some of the test organisms. Fastidious Gram negative organisms were tested in Mueller-Hinton broth, supplemented with hemin and NAD, grown aerobically for 24 hours at 37° C., and with an innoculum of 5×10^4 CFU/well.
# Streptococcus pyogenes = experiment: MIC, agar with 5% defibrinated horse blood; assay type: cell-based; settings: agar + 5% horse blood, 5% carbon dioxide, 48 hours
# Procedure: as §1, §2
# Haemophilus influenzae = experiment: MIC, fastidious Gram negative organisms, Mueller-Hinton broth; assay type: cell-based; settings: Mueller-Hinton broth with hemin and NAD, 24 hours, 5×10^4 CFU/well
# Procedure: as §1, §2
# Moraxella catarrhalis = experiment: as above; assay type: cell-based; settings: Mueller-Hinton broth with hemin and NAD, 24 hours, 5×10^4 CFU/well
# Procedure: as §1, §2
# MAO-A = molecular target: T1, MAO-A (Homo sapiens, UniProt P21397); experiment: MAO-A standard in-vitro assay, human liver enzyme expressed in yeast; assay type: biochemical
# T1 construct: made in house; host or cells: yeast
# T1 sequence (P21397 1-527): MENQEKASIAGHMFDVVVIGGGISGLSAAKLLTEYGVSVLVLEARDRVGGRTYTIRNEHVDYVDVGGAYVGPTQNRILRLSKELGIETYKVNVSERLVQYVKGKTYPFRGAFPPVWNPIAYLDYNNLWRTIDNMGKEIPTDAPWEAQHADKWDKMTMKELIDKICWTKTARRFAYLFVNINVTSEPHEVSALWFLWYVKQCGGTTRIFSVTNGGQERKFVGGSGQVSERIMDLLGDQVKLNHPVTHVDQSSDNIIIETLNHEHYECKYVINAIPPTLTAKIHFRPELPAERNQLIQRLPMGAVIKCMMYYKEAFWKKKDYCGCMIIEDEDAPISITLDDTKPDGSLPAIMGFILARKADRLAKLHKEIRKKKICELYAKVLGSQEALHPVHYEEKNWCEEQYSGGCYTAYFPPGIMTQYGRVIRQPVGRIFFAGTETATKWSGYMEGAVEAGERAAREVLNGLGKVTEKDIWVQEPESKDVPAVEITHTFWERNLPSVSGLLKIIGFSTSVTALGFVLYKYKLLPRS
# Procedure: The activity of the compounds of the invention against MAO-A was tested using a standard in-vitro assay based on human liver enzyme expressed in yeast as described in Biochem. Biophys. Res. Commun. 1991, 181, 1084–1088.
# [1] = test system: Staphylococcus aureus MRQR (methicillin resistant and quinolone resistant); experiment: MIC, agar-dilution, staphylococci; assay type: cell-based; settings: 10^4 CFU/spot, 37° C., 24 hours
# Procedure: as §1
# (§3) Staphylococci were tested on agar, using an inoculum of 10^4 CFU/spot and an incubation temperature of 37° C. for 24 hours—standard test conditions for the expression of methicillin resistance.
# [2] = test system: Staphylococcus aureus MSQS (methicillin sensitive and quinolone sensitive); experiment: MIC, agar-dilution, staphylococci; assay type: cell-based; settings: 10^4 CFU/spot, 37° C., 24 hours
# Procedure: as §1, §3
smiles,measurement,setting,value
"[N-]=[N+]=NCc1cn(C[C@H]2CN(c3ccc(C4=CC[S+]([O-])CC4)c(F)c3)C(=O)O2)nn1 (stereo partly drawn) [Example 3, (5R)-3-[4-(1(R,S)-Oxo-3,6-dihydro-2H-thiopyran-4-yl)-3-fluorophenyl]-5-[(4-azidomethyl)-1,2,3-triazol-1-ylmethyl]oxazolidin-2-one]",MIC,Streptococcus pneumoniae,2 µg/mL
same,MIC,Streptococcus pyogenes,2 µg/mL
same,MIC,Haemophilus influenzae,2 µg/mL
same,MIC,Moraxella catarrhalis,4 µg/mL
same,pKi,MAO-A,< 3.39
same,MIC,[1],8 µg/mL
same,MIC,[2],4 µg/mL
